From patent publication US9951060B2, “2-acylaminothiazole derivative or salt thereof” (ASTELLAS PHARMA INC., priority 2014, dated 2018)
Where two headings read alike, the source gives them in different places.

How the values were obtained:
[1] = molecular target: T1, human muscarinic M3 receptor (Homo sapiens, UniProt P20309); assay: Test Example 1: muscarinic M3 receptor positive allosteric modulator activity (shift of carbachol concentration-response curve, intracellular Ca2+, FLIPR); conditions: carbachol EC50 without / with test substance, CHO-K1 cells expressing human M3
T1 sequence (P20309 whole entry): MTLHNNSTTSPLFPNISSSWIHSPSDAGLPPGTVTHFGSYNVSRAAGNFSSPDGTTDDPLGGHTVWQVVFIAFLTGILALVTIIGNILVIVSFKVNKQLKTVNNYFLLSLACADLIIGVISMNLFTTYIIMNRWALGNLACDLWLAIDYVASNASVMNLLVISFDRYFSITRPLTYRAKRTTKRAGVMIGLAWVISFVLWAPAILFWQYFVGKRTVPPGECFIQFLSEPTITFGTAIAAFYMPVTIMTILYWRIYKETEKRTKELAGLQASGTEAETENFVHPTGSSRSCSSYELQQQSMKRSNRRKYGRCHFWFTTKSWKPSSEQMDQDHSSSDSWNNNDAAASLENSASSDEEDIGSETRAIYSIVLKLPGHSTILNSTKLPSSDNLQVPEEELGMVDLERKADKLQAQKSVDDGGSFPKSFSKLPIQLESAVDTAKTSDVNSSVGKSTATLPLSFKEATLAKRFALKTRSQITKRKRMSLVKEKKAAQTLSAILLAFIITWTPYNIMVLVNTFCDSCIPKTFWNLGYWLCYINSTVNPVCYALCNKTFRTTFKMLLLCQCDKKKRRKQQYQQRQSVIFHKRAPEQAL

[2] = molecular target: T2, human c-Mpl-introduced Ba/F3 cell (Homo sapiens, UniProt P40238); assay: Test Example 2: human c-Mpl-introduced Ba/F3 cell proliferative activity; format: cell-based; conditions: concentration exhibiting 30% proliferation; 100% = positive control (Example 315 of Patent Document 1) at 1 μM
T2 construct: expressed in transfected cells
T2 sequence (P40238 26-635): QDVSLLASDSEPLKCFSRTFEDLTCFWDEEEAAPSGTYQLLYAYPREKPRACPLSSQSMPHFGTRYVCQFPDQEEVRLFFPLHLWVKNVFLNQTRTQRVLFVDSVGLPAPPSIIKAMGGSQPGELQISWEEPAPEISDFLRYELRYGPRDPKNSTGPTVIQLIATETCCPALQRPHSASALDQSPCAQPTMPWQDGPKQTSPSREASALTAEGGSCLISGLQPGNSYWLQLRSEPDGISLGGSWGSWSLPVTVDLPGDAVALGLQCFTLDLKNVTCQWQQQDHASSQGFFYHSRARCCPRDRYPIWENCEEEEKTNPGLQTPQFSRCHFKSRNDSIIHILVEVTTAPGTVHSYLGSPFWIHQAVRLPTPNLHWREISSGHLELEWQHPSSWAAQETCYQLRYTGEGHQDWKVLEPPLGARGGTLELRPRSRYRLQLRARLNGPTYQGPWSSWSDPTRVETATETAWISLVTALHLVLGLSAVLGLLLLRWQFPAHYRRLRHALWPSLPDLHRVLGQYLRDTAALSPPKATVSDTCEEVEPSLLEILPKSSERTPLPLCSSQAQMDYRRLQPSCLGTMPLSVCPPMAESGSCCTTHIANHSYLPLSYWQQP
Procedure: Test Example 2: Evaluation of Human c-Mpl-Introduced Ba/F3 Cell Proliferative Activity
The human c-Mpl-introduced Ba/F3 cell proliferation action was measured by the following method.
As a positive control, 1-(5-{[4-(4-chlorothiophen-2-yl)-5-{[(2R)-2-methylpyrrolidin-1-yl]methyl}-1,3-thiazol-2-yl]carbamoyl}-3-fluoropyridin-2-yl)piperidine-4-carboxylic acid hydrochloride disclosed as Example 315 in Patent Document 1, represented by the formula (A1) above, was used. Further, it is known that the compound has a good human c-Mpl-introduced Ba/F3 cell proliferative activity as disclosed in Table 1 in Patent Document 1.
a) Construction of Vector Expressing Human c-Mpl Receptor
A human c-Mpl receptor gene (GenBank Accession No.: M90102.1) was transfected into an expression vector pEF-BOS (Nucleic Acids Research, 18: pp 5322 (1990)).
b) Construction of Cell Stably Expressing Human c-Mpl Receptor
A vector expressing a human c-Mpl receptor was introduced into a Ba/F3 cell (RIKEN BRC: RCB0805). For the introduction, an electroporation method was used. pEF-BOS-c-mpl (10 μg), pSV2bsr (1 μg, Kaken Pharmaceutical Co., Ltd.) and 1×10^7 of Ba/F3 cells were put into cuvettes with a gap width of 0.4 cm and electroporated under a condition of 1.5 kV (25 μF) in a Gene Pulser (registered trademark) (BioRad). The cells were incubated in an RPMI-1640 medium supplemented with a 0.5% WEHI conditioned medium (BD Biosciences) and 10% fetal bovine serum for 3 days, and thereafter, and the cells were incubated for 30 days in an RPMI-1640 medium, to which 10 μg/mL blasticidin had been further added, thereby acquiring a drug-resistant clone.
c) Measurement of Cell Proliferative Activity
The cells obtained in b) above were dispensed into an RPMI-1640 medium supplemented with a 0.5% WEHI conditioned medium and 10% fetal bovine serum, and used. The day before the experiment, the test substances (final concentration of 100 nM to 10 μM) which had been dissolved in a medium for assay (an RPMI-1640 medium supplemented with 10% fetal bovine serum) were added to a 384-well plate (Model No. 781185, Greiner bio-one). The cells after the medium had been replaced with the medium for assay were dispensed to a 384-well plate to which the test substance had been added, to 1×10^4 cells/well, and incubated overnight at 37° C. and 5% CO2. On the experiment day, a solution of a Cell counting kit (Dojindo Laboratories) was added to each well of the 384-well plate, and the cells were incubated for about 5 hours at 37° C. and 5% CO2. Thereafter, the absorbance (an absorbance wavelength of 450 nm) of each well was measured using Safire^2 (registered trademark) (TECAN), and used as an index for the number of cells. Further, as a negative control, a well to which the test substances had not been added was prepared.
By taking the absorbance of the well to which the test substance had been not added as 0% and taking the absorbance in a case where the positive control had been added to a final concentration of 1 μM as 100%, a cell proliferation rate (%) was calculated from the absorbance of the well to which the test substance had been added.

[3] = molecular target: T1, human muscarinic M3 receptor
[4] = molecular target: T2, human c-Mpl-introduced Ba/F3 cell; conditions: disclosed in Table 1 of Patent Document 1 (WO 2005/007651); cited from earlier work

## Cc1cc(-c2nc(NC(=O)c3cnc(N4CCN(CCC(=O)[O-])CC4)cn3)sc2CN2CCCC[C@H]2C)cc(C(F)(F)F)c1.[Na+] [Example 4, sodium 3-(4-{5-[(5-{[(2R)-2-methylpiperidin-1-yl]methyl}-4-[3-methyl-5-(trifluoromethyl)phenyl]-1,3-thiazol-2-yl)carbamoyl]pyrazin-2-yl}piperazin-1-yl)propanoate]
[1]; test substance 1 μM
  muscarinic M3 receptor-positive allosteric modulator activity, 1 μM (-fold shift): 25 -fold shift
[1]; test substance 10 μM
  muscarinic M3 receptor-positive allosteric modulator activity, 10 μM (-fold shift): 200 -fold shift
[2]
  human c-Mpl-introduced Ba/F3 cell proliferative activity EC30: >3 µM

## C[C@@H]1CC[C@@H](C)N1Cc1sc(NC(=O)c2cnc(N3CCN(CCC(=O)O)CC3)cn2)nc1-c1cc(C(F)(F)F)cs1 [Example 111]
[2]
  human c-Mpl-introduced Ba/F3 cell proliferative activity EC30: 5 µM
[3]
  muscarinic M3 receptor-positive allosteric modulator activity, 1 μM (-fold shift): 203 -fold shift
  muscarinic M3 receptor-positive allosteric modulator activity, 10 μM (-fold shift): 627 -fold shift

## CCN(CC)Cc1sc(NC(=O)c2cnc(N3CCN(CC(=O)O)C[C@H]3C)cn2)nc1-c1cc(F)cc(C(F)(F)F)c1 [Example 118]
[2]
  human c-Mpl-introduced Ba/F3 cell proliferative activity EC30: >10 µM
[3]
  muscarinic M3 receptor-positive allosteric modulator activity, 1 μM (-fold shift): 57 -fold shift
  muscarinic M3 receptor-positive allosteric modulator activity, 10 μM (-fold shift): 167 -fold shift

## C[C@@H]1CC[C@@H](C)N1Cc1sc(NC(=O)c2cnc(N3CCN(CCC(=O)O)[C@@H](C)C3)cn2)nc1-c1cc(Cl)cs1 [Example 126]
[2]
  human c-Mpl-introduced Ba/F3 cell proliferative activity EC30: >10 µM
[3]
  muscarinic M3 receptor-positive allosteric modulator activity, 1 μM (-fold shift): 79 -fold shift
  muscarinic M3 receptor-positive allosteric modulator activity, 10 μM (-fold shift): 318 -fold shift

## C[C@H]1CN(c2cnc(C(=O)Nc3nc(-c4cc(Cl)cs4)c(CN(C)CC4CC4)s3)cn2)CCN1CCC(=O)O [Example 128]
[2]
  human c-Mpl-introduced Ba/F3 cell proliferative activity EC30: 8 µM
[3]
  muscarinic M3 receptor-positive allosteric modulator activity, 1 μM (-fold shift): 73 -fold shift
  muscarinic M3 receptor-positive allosteric modulator activity, 10 μM (-fold shift): 192 -fold shift

## C[C@@H]1CN(c2cnc(C(=O)Nc3nc(-c4cc(Cl)cs4)c(CN(C)CC4CC4)s3)cn2)CCN1CCC(=O)O [Example 130]
[2]
  human c-Mpl-introduced Ba/F3 cell proliferative activity EC30: >10 µM
[3]
  muscarinic M3 receptor-positive allosteric modulator activity, 1 μM (-fold shift): 95 -fold shift
  muscarinic M3 receptor-positive allosteric modulator activity, 10 μM (-fold shift): 151 -fold shift

## C[C@@H]1CCCN1Cc1sc(NC(=O)c2cnc(N3CCN(CCC(=O)O)CC3)cn2)nc1-c1cc2ccccc2s1 [Example 132]
[2]
  human c-Mpl-introduced Ba/F3 cell proliferative activity EC30: >10 µM
[3]
  muscarinic M3 receptor-positive allosteric modulator activity, 1 μM (-fold shift): 15 -fold shift
  muscarinic M3 receptor-positive allosteric modulator activity, 10 μM (-fold shift): 41 -fold shift

## C[C@@H]1CCCN1Cc1sc(NC(=O)c2cnc(N3CCC(C(=O)O)CC3)c(F)c2)nc1-c1cc(Cl)cs1.Cl [Example 315, 1-(5-{[4-(4-chlorothiophen-2-yl)-5-{[(2R)-2-methylpyrrolidin-1-yl]methyl}-1,3-thiazol-2-yl]carbamoyl}-3-fluoropyridin-2-yl)piperidine-4-carboxylic acid hydrochloride]
[4]
  EC30 value of c-Mpl-introduced Ba/F3 cell proliferation action: 0.0032 µM
